Test results taken from patent US11713309B2, “Solid forms of Cerdulatinib” (Alexion Pharmaceuticals, Inc., priority 2018, dated 2023).
Where a name gives a salt, the structure may show the parent alone.

Experiment: Gravimetric vapor sorption (GVS) hygroscopicity
Type: physicochemical
Conditions: for GVS weight gain / total weight uptake: at/after about 70% RH, 25° C.
Procedure: Sorption isotherms were obtained using a Hiden Isochema moisture sorption analyser (model IGAsorp), controlled by IGAsorp Systems Software v6.50.48. The sample was maintained at a constant temperature (25° C.) by the instrument controls. The humidity was controlled by mixing streams of dry and wet nitrogen, with a total flow of 250 mL·min^−1. The instrument was verified for relative humidity content by measuring three calibrated Rotronic salt solutions (10-50-88%). The weight change of the sample was monitored as a function of humidity by a microbalance (accuracy+/−0.005 mg). A defined amount of sample was placed in a tared mesh stainless steel basket under ambient conditions. A full experimental cycle consisted of two scans (sorption and desorption) at a constant temperature (25° C.) and 10% RH intervals over a 10-90% range (90 minutes for each humidity level).
The hygroscopicity of the esylate, mesylate, HCl, and sulfate salts/co-crystals of Compound I formed via the first scale up process was analyzed. All hygroscopicity experiments covered a wide range of humidity (0 to about 90% relative humidity) and were performed at about 25° C. to assess behavior.

## CCS(=O)(=O)N1CCN(c2ccc(Nc3ncc(C(N)=O)c(NC4CC4)n3)cc2)CC1 [Compound I HCl Form I, 4-(cyclopropylamino)-2-(4-(4-(ethylsulfonyl)piperazin-1-yl)phenylamino)pyrimidine-5-carboxamide]
  GVS weight gain / total weight uptake: about 5.9%
Listed as Comp. I HCl (aq., 1:2) Form I
  GVS weight gain / total weight uptake: About 5.9%
Exposure to humidity 0 to about 90% RH, about 25° C.
  Crystalline form by XRPD post GVS analysis: does not result in a form change
Kept under about 100% dry atmosphere
  GVS mass lost: about 0.5%
Up to about 70% RH
  GVS weight variation: does not vary significantly
